Experiments:
Test in all cases: KinaseProfiler Assay
Abl(M351T)(h) = Abl(M351T)(h) (Homo sapiens, UniProt P00519, M351T)
cKit(V654A)(h) = cKit(V654A)(h) (Homo sapiens, UniProt P10721, V654A)
EphA2(h) = EphA2(h) (Homo sapiens, UniProt P29317)
Flt3(D835Y)(h) = target: T1, Flt3(D835Y)(h) (Homo sapiens, UniProt P36888, D835Y)
T1 sequence (P36888 27-993 D835Y): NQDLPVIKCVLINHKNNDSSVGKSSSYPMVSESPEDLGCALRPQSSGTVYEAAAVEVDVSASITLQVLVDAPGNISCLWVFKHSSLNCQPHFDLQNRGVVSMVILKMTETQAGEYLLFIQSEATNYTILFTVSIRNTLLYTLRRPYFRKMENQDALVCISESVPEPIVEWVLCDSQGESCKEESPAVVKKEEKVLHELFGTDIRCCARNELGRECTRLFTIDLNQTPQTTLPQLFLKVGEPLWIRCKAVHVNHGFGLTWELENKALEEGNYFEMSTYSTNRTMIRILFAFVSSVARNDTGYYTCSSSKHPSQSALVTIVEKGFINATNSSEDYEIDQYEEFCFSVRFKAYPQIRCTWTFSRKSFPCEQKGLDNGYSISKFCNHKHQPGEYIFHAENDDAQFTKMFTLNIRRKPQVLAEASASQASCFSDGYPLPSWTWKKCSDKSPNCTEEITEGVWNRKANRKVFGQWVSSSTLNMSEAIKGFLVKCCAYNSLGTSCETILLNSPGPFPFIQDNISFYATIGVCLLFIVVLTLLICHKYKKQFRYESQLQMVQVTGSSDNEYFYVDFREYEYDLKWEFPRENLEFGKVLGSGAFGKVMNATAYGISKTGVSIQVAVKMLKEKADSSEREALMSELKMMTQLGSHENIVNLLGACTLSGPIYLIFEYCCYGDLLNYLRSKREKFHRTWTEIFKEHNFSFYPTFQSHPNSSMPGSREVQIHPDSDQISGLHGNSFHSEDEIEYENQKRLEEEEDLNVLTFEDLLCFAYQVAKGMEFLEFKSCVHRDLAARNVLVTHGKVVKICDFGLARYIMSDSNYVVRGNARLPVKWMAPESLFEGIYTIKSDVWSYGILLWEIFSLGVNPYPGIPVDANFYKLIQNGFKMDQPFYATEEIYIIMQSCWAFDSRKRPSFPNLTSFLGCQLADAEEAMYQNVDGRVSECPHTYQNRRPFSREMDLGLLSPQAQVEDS

MAPKAP-K2(h) = MAPKAP-K2(h) (Homo sapiens, UniProt P49137)
MuSK(h) = target: T2, MuSK(h) (Homo sapiens, UniProt O15146)
T2 sequence (O15146 24-869): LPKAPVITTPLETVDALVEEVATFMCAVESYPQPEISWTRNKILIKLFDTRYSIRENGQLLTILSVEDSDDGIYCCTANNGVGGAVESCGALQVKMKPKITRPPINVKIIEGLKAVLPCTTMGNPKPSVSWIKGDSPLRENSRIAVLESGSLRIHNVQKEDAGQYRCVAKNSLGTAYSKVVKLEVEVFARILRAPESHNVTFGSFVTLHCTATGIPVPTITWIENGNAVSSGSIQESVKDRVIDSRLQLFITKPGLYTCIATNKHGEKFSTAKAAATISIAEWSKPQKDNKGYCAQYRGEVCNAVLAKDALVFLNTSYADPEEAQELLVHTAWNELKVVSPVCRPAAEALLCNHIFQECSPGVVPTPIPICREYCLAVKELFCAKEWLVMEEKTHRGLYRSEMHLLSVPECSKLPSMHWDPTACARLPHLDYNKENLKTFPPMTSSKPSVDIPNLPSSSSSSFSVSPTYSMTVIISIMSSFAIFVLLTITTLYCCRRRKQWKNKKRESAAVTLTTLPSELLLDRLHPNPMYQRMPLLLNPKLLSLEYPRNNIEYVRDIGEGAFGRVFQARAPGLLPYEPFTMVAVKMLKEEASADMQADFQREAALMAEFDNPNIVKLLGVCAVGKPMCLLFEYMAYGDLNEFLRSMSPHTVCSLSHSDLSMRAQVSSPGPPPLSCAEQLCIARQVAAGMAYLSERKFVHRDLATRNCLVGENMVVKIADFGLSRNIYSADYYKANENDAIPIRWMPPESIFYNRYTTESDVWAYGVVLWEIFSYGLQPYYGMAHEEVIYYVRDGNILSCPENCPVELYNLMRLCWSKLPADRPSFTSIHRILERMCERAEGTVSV

PKBβ(h) = PKBβ(h) (Homo sapiens, UniProt P31751)
PKCβII(h) = PKCβII(h) (Homo sapiens, UniProt P05771)
Syk(h) = Syk(h) (Homo sapiens, UniProt P43405)

Sequence of PKBβ(h) (P31751 whole entry): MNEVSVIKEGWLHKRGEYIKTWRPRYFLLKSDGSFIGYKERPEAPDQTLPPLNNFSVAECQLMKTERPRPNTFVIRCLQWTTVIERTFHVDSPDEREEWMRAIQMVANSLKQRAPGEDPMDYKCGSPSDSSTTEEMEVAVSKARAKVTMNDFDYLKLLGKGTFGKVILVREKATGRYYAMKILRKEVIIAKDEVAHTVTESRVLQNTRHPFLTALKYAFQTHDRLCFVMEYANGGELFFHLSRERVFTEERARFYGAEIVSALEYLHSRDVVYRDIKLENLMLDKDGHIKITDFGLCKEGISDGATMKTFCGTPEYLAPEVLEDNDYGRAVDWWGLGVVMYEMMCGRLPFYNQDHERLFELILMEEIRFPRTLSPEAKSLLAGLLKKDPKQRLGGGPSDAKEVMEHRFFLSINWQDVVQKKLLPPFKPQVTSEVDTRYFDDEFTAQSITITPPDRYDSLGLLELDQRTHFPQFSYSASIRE
Sequence of EphA2(h) (P29317 24-976): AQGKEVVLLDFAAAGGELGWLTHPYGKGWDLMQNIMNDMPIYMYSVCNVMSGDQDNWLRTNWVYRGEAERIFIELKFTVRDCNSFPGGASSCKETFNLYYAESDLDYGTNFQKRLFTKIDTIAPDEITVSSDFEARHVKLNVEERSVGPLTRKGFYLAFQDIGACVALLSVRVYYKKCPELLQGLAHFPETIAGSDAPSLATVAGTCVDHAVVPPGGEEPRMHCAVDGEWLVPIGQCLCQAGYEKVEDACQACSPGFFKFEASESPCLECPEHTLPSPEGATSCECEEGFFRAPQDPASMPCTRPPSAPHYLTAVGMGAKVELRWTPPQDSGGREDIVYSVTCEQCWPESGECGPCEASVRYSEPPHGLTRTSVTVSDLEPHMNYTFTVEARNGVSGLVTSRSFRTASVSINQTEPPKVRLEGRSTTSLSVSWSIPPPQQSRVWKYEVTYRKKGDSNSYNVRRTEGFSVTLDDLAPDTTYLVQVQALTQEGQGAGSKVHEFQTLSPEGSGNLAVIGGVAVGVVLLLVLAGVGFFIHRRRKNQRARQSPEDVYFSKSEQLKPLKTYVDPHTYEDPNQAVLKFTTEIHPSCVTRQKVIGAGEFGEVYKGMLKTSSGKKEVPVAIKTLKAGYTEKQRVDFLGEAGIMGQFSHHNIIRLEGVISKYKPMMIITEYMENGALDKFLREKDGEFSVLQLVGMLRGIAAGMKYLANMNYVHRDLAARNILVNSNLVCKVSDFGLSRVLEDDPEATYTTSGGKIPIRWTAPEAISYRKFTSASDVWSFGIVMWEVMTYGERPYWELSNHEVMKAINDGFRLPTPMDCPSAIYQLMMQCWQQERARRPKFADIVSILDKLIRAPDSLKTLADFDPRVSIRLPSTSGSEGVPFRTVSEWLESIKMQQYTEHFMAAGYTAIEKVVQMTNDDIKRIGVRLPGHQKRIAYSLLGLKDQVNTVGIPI
Sequence of cKit(V654A)(h) (P10721 26-976 V654A): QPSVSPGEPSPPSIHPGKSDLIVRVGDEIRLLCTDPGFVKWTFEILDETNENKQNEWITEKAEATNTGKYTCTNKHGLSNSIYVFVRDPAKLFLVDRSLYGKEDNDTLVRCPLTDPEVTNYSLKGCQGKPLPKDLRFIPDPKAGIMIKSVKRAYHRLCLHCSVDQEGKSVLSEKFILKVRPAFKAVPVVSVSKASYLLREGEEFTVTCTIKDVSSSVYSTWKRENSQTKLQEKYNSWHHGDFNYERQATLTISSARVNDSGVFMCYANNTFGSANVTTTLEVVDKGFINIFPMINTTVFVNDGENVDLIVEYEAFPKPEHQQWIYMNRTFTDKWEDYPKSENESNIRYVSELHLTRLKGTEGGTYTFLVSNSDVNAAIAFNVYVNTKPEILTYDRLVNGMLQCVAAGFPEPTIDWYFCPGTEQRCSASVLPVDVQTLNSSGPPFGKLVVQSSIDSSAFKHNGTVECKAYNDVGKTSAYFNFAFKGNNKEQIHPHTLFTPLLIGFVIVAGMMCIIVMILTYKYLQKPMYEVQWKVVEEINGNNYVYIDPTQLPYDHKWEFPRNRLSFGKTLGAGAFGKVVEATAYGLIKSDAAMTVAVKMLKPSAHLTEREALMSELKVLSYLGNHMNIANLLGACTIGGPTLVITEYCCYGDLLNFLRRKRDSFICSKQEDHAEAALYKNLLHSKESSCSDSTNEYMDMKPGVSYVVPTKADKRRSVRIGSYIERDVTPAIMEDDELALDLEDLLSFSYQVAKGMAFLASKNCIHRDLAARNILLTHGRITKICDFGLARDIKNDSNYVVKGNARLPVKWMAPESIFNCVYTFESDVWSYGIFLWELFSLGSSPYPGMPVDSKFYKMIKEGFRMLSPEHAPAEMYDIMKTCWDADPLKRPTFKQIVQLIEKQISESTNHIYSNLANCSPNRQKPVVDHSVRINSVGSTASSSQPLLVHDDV
Sequence of PKCβII(h) (P05771 1-673 isoform P05771-2): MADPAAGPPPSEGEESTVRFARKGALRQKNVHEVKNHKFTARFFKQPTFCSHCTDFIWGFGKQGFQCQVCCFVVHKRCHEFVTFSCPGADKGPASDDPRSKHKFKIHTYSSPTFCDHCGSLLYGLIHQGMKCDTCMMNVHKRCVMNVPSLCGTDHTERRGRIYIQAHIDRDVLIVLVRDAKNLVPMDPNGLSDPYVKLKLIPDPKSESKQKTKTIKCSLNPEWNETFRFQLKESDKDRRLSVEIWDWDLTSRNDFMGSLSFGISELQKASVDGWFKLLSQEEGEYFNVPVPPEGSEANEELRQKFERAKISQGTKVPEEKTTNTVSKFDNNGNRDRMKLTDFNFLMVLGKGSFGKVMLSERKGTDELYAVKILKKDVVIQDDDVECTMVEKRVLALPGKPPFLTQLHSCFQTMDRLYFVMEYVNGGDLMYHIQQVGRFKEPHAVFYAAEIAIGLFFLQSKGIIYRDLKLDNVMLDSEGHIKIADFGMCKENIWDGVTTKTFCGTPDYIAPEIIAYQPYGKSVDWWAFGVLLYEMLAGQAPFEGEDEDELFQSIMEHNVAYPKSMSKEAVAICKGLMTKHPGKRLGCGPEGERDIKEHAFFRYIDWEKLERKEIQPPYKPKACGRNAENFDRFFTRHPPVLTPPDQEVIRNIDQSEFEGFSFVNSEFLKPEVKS
Sequence of MAPKAP-K2(h) (P49137 whole entry): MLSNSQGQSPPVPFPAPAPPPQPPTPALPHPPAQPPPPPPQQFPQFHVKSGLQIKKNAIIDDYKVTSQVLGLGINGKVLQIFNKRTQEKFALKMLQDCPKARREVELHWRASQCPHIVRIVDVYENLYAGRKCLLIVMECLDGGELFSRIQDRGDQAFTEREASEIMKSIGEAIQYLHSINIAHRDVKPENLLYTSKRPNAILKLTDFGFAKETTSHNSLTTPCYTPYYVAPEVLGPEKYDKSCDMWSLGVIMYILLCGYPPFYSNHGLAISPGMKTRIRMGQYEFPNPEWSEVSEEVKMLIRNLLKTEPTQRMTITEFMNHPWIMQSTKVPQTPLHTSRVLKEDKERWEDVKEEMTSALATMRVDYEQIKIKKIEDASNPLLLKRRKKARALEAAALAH

## CC(C)CCC(=O)[C@]1(O)C(O)=C(C(=O)C(C)C)C(=O)[C@H]1CCC(C)C [TH2, tetrahydroiso-cohumulone]
Abl(M351T)(h); 1 μg/ml
  kinase inhibition: 92% of control
Abl(M351T)(h); 5 μg/ml
  kinase inhibition: 95% of control
Abl(M351T)(h); 25 μg/ml
  kinase inhibition: 89% of control
Abl(M351T)(h); 50 μg/ml
  kinase inhibition: 75% of control
Abl(M351T)(h); 100 μg/ml
  kinase inhibition: 56% of control
cKit(V654A)(h); 1 μg/ml
  kinase inhibition: 100% of control
cKit(V654A)(h); 5 μg/ml
  kinase inhibition: 101% of control
cKit(V654A)(h); 25 μg/ml
  kinase inhibition: 112% of control
cKit(V654A)(h); 50 μg/ml
  kinase inhibition: 88% of control
cKit(V654A)(h); 100 μg/ml
  kinase inhibition: 75% of control
EphA2(h); 1 μg/ml
  kinase inhibition: 102% of control
EphA2(h); 5 μg/ml
  kinase inhibition: 104% of control
EphA2(h); 25 μg/ml
  kinase inhibition: 105% of control
EphA2(h); 50 μg/ml
  kinase inhibition: 99% of control
EphA2(h); 100 μg/ml
  kinase inhibition: 92% of control
Flt3(D835Y)(h); 1 μg/ml
  kinase inhibition: 108% of control
Flt3(D835Y)(h); 5 μg/ml
  kinase inhibition: 116% of control
Flt3(D835Y)(h); 25 μg/ml
  kinase inhibition: 102% of control
Flt3(D835Y)(h); 50 μg/ml
  kinase inhibition: 105% of control
Flt3(D835Y)(h); 100 μg/ml
  kinase inhibition: 98% of control
MAPKAP-K2(h); 1 μg/ml
  kinase inhibition: 116% of control
MAPKAP-K2(h); 5 μg/ml
  kinase inhibition: 104% of control
MAPKAP-K2(h); 25 μg/ml
  kinase inhibition: 104% of control
MAPKAP-K2(h); 50 μg/ml
  kinase inhibition: 74% of control
MAPKAP-K2(h); 100 μg/ml
  kinase inhibition: 73% of control
MuSK(h); 1 μg/ml
  kinase inhibition: 104% of control
MuSK(h); 5 μg/ml
  kinase inhibition: 101% of control
MuSK(h); 25 μg/ml
  kinase inhibition: 99% of control
MuSK(h); 50 μg/ml
  kinase inhibition: 98% of control
MuSK(h); 100 μg/ml
  kinase inhibition: 97% of control
PKBβ(h); 1 μg/ml
  kinase inhibition: 104% of control
PKBβ(h); 5 μg/ml
  kinase inhibition: 97% of control
PKBβ(h); 25 μg/ml
  kinase inhibition: 68% of control
PKBβ(h); 50 μg/ml
  kinase inhibition: 43% of control
PKBβ(h); 100 μg/ml
  kinase inhibition: 31% of control
PKCβII(h); 1 μg/ml
  kinase inhibition: 107% of control
PKCβII(h); 5 μg/ml
  kinase inhibition: 105% of control
PKCβII(h); 25 μg/ml
  kinase inhibition: 99% of control
PKCβII(h); 50 μg/ml
  kinase inhibition: 103% of control
PKCβII(h); 100 μg/ml
  kinase inhibition: 98% of control
Syk(h); 1 μg/ml
  kinase inhibition: 135% of control
Syk(h); 5 μg/ml
  kinase inhibition: 120% of control
Syk(h); 25 μg/ml
  kinase inhibition: 63% of control
Syk(h); 50 μg/ml
  kinase inhibition: 37% of control
Syk(h); 100 μg/ml
  kinase inhibition: 47% of control
